“And” between values parts separate entries of the source, which are not always exact repeats. Equal entries are not always repeated. “Also recorded” adds a separate entry of the source.
Experiments:
Type in all cases: biochemical
[1] = test system: α-D-glucosidase (rat intestine); experiment: Glycosidase inhibition (Table 3 panel); conditions: 1 mg/mL aqueous solution; run in water
Procedure: (§1) All enzymes and para-nitrophenyl substrates were purchased from Sigma. Enzymes were assayed at 27 °C in citric acid (0.1 M)/disodium hydrogen phosphate (0.2 M) buffers at the optimum pH for the enzyme. The incubation mixture consisted of […] of 1 mg/mL aqueous solution of extract and […] of the appropriate […] para-nitrophenyl substrate made up in buffer at the optimum pH for the enzyme. The reactions were stopped by addition of […] 0.4 M glycine (pH 10.4) during the exponential phase of the reaction, which had been determined at the beginning using uninhibited assays in which water replaced the inhibitor. Final absorbances were read at 405 nm using a Versamax microplate reader (Molecular Devices, Wokingham, UK). Assays were carried out in triplicate, and the values given are means of the three replicates per assay. All reactions were run in water.

[2] = test system: N-acetyl-β-D-hexosaminidase (rat intestine); experiment: Glycosidase inhibition (Table 3 panel); conditions: 1 mg/mL aqueous solution; run in water
Procedure: as §1

[3] = test system: β-D-glucanase (T. Longibrachiatum); experiment: Glycosidase inhibition (Table 2 panel); conditions: at 100 μM
[4] = test system: α-D-glucosidase (human lysosome); experiment: Glycosidase inhibition (Table 2 panel); conditions: at 100 μM
[5] = test system: β-D-glucosidase (human lysosome); experiment: Glycosidase inhibition (Table 2 panel); conditions: at 100 μM
[6] = test system: β-D-galactosidase (E. coli); experiment: Glycosidase inhibition (Table 2 panel); conditions: at 100 μM
[7] = target: T1, β-D-galactosidase (bovine liver) (Bos taurus, UniProt F1MNT6); experiment: Glycosidase inhibition (Table 2 panel)
T1 sequence (F1MNT6 1-469): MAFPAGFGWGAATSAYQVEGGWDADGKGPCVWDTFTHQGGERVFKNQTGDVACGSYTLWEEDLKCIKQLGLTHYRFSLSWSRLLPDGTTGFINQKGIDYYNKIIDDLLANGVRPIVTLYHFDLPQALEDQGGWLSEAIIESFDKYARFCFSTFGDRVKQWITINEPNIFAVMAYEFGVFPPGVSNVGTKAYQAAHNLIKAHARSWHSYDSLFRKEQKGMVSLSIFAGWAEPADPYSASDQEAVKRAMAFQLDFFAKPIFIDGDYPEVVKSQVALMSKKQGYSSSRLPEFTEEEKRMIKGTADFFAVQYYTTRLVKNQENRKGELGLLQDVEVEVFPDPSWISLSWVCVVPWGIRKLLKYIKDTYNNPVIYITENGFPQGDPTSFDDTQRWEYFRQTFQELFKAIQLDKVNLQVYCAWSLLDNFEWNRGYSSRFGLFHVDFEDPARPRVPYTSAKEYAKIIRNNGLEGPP
Summary of the method: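 Activity was measured with the matching para-nitrophenyl glycoside […] at each enzyme's optimum pH and stopped with Na2CO3 […]. Released para-nitrophenol was read at 400 nm. […]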

[8] = test system: glycosidases in the panel; experiment: Glycosidase inhibition, whole Table 2 panel
Excerpt: The enzymes α-D-glucosidase (yeast), β-D-glucosidases (almond, bovine liver), α-D-galactosidase (coffee beans), β-D-galactosidase (bovine liver), α-D-mannosidase (Jack bean), β-D-mannosidase (snail), α-L-rhamnosidase (P. decumbens), α-L-fucosidase (bovine kidney), trehalase (porcine kidney), β-D-glucuronidases (E. coli, bovine liver), amyloglucosidase (A. niger), para-nitrophenyl glycosides, and various disaccharides were purchased from Sigma-Aldrich Co (St. Louis, MO, USA).
Brush border membranes were prepared from the rat small intestine according to the method of Kessler et al., and were assayed at pH 6.8 for rat intestinal maltase using maltose. For rat intestinal maltase, porcine kidney trehalase, and A. niger amyloglucosidase activities, the reaction mixture contained maltose ([…]) and the appropriate amount of enzyme, and the incubations were performed for 10–30 min at 37 °C. The reaction was stopped by heating at 100 °C for 3 min. After centrifugation (600 g; 10 min), the resulting reaction mixture was added to the Glucose CII-test Wako (Wako Pure Chemical Ind., Osaka, Japan). The absorbance at 505 nm was measured to determine the amount of the released D-glucose. Other glycosidase activities were determined using an appropriate para-nitrophenyl glycoside as substrate at the optimum pH of each enzyme. The reaction mixture contained the substrate ([…]) and the appropriate amount of enzyme. The reaction was stopped by the addition of Na2CO3 ([…]). The released para-nitrophenol was measured spectrometrically at 400 nm. All reactions were run in […].

several glycosidases = experiment: Glycosidase inhibition, whole Table 3 panel; conditions: Table 3 assay conditions
Procedure: as §1

[9] = test system: α-D-glucosidase (Bacillus); experiment: Glycosidase inhibition (Table 3 panel); conditions: 1 mg/mL aqueous solution; run in water
Procedure: as §1

[10] = test system: T2, α-D-mannosidase (Jack bean); experiment: Glycosidase inhibition (Table 3 panel); conditions: 1 mg/mL aqueous solution; run in water
T2 construct: purchased Sigma-Aldrich; host or cells: Jack bean
Procedure: as §1

[11] = test system: N-acetyl-β-D-glucosaminidase (bovine kidney); experiment: Glycosidase inhibition (Table 3 panel); conditions: 1 mg/mL aqueous solution; run in water
Procedure: as §1

Compound	Percentage inhibition α-D-Glucosidase Rat Intestine [1]	Percentage inhibition N-Acetyl-β-D-Hexosaminidase Rat Intestine [2] [%]	inhibition % β-D-Glucanase T. Longibrachiatum [3]	inhibition % α-D-Glucosidase Human Lysosome [4]	inhibition % β-D-Glucosidase Human Lysosome [5]	inhibition % β-D-Galactosidase E. coli [6]	inhibition at 1000 µM ([7]; at 1000 μM) [%]	inhibition % β-D-Galactosidase Bovine Liver ([7]; at 100 μM)	inhibition % β-D-Galactosidase Bovine Liver ([7]; at 1000 μM)	Inhibitory activity over the glycosidase panel, in words [8]	Inhibition over the glycosidases of Table 3 (several glycosidases)	Percentage inhibition α-D-Glucosidase Bacillus [9] [%]	Percentage inhibition α-D-Mannosidase Jack Bean [10] [%]	Percentage inhibition N-Acetyl-β-D-glucosaminidase Bovine Kidney [11] [%]	inhibition at 100 µM ([7]; at 100 μM) [%]
OB(O)c1cccc(CN2C[C@@H](O)[C@H]3OC(O)[C@H](O)[C@H]32)c1 (stereo partly drawn) [meta 3, N-(3-Methylphenylboronic acid)-3,6-dideoxy-3,6-imino-D-gulofuranose]	12.1% and 8.9%	8.7	^cNI ^d(0%)	^cNI ^d(3.5%)	^cNI ^d(6.6%)	^cNI ^d(0.2%)	–	–	–	–	–	–	–	–	–
CC1(C)O[C@H]2O[C@H]3[C@@H]([C@H]2O1)N(Cc1ccccc1B1OC(C)(C)C(C)(C)O1)C[C@H]3O [ortho 2, N-(2-Methylphenylboronic acid pinacol ester)-3,6-dideoxy-3,6-imino-1,2-O-isopropylidene-α-D-gulofuranose]	−6.7%	13.8	^cNI ^d(21%)	^cNI ^d(3.3%)	^cNI ^d(5.6%)	^cNI ^d(8.8%)	21.8	–	–	–	–	–	–	–	–
N-(3-Hydroxyphenyl)-1,4-dideoxy-1,4-imino-L-gulitol [meta 7]	−10.7%	−2.5	^cNI ^d(0%)	^cNI ^d(0%)	^cNI ^d(9.9%)	^cNI ^d(0%)	–	^cNI ^d(17.5%)	^aNI ^b(8.1%)	complete abrogation of inhibition; also recorded: abrogation of biological activity	–	–	–	–	–
N[C@@H](Cc1ccc(B(O)O)cc1)C(=O)O [^10B-BPA, reference compound]	–	–	–	–	–	–	–	^cNI ^d(0%)	–	–	< 30%	19.5	−0.7	6.3	–
Borocaptate sodium [BSH, reference compound]	–	–	–	–	–	–	–	–	^aNI ^b(0%)	–	31.6–65.9%	48.1	−18.7	37.1	–
OB(O)c1ccccc1CN1C[C@@H](O)[C@H]2OC(O)[C@H](O)[C@H]21 (stereo partly drawn) [ortho 3, N-(2-Methylphenylboronic acid)-3,6-dideoxy-3,6-imino-D-gulofuranose]	−1.4%	19.2	^cNI ^d(0%)	^cNI ^d(0.3%)	^cNI ^d(0%)	^cNI ^d(4.4%)	–	–	–	–	–	–	–	–	–
OC[C@H](O)[C@@H]1[C@H](O)[C@H](O)CN1Cc1cccc(B(O)O)c1 [meta 4, N-(3-Methylphenylboronic acid)-1,4-dideoxy-1,4-imino-L-gulitol]	41.1%	−2.2	^cNI ^d(1.2%)	^cNI ^d(7.2%)	^cNI ^d(13.6%)	^cNI ^d(4.9%)	–	–	–	–	–	–	–	–	24.6
N[C@@H](Cc1ccc(B(O)O)cc1)C(=O)O [BPA, 4-borono-L-phenylalanine, reference compound]	–	–	–	–	–	–	–	–	–	–	< 30%	19.9	0.6	6.7	10.9
CC1(C)O[C@H]2O[C@H]3[C@@H]([C@H]2O1)N(Cc1cccc(B2OC(C)(C)C(C)(C)O2)c1)C[C@H]3O [meta 2, N-(3-Methylphenylboronic acid pinacol ester)-3,6-dideoxy-3,6-imino-1,2-O-isopropylidene-α-D-gulofuranose]	16.8%	11.5	^cNI ^d(3.9%)	^cNI ^d(3.9%)	^cNI ^d(0%)	^cNI ^d(0%)	41.8	–	–	–	–	–	–	–	2.2
CC1(C)O[C@H]2O[C@H]3[C@@H]([C@H]2O1)N(Cc1ccccc1B(O)O)C[C@H]3O [ortho 5]	4.2%	5.2	^cNI ^d(5.2%)	^cNI ^d(0%)	^cNI ^d(3.5%)	^cNI ^d(0%)	–	–	–	abrogates inhibitory activity	–	–	–	–	6.1
OC[C@H](O)[C@@H]1[C@H](O)[C@H](O)CN1Cc1ccccc1B(O)O [ortho 4, N-(2-Methylphenylboronic acid)-1,4-dideoxy-1,4-imino-L-gulitol]	17.4%	−0.2	^cNI ^d(0%)	^cNI ^d(2.2%)	^cNI ^d(0%)	^cNI ^d(14%)	–	–	–	–	–	–	–	–	3.3
CC1(C)O[C@H]2O[C@H]3[C@@H]([C@H]2O1)N(Cc1cccc(B(O)O)c1)C[C@H]3O [meta 5, N-(3-Methylphenylboronic acid)-3,6-dideoxy-3,6-imino-1,2-O-isopropylidene-α-D-glucofuranose]	11.6%	5	^cNI ^d(0%)	^cNI ^d(0.3%)	^cNI ^d(0%)	^cNI ^d(0%)	–	–	–	abrogates inhibitory activity	–	–	–	–	0
CC1(C)O[C@H]2O[C@H]3[C@@H]([C@H]2O1)N(Cc1cccc(O)c1)C[C@H]3O [meta 6]	4.8%	−0.7	^cNI ^d(3.1%)	^cNI ^d(3.3%)	^cNI ^d(0%)	^cNI ^d(0.8%)	–	–	–	abrogates inhibitory activity	–	–	–	–	15.5

Reference: publication PMC12655172, “Borylated 5-Membered Ring Iminosugars: Synthesis and Biological Evaluation for Glycosidase Inhibition and Anticancer Properties for Application in Boron Neutron Capture Therapy (BNCT)—Part 2” (Pharmaceuticals, 2025)
